Patent US7776873B2, “Method for treating damage to gastric mucosa” (Yuhan Corporation, priority 2005, dated 2010)

Columns and labels:
[1] = system: heat-shock proteins, HO-1, HSP27, HSP70; assay: Expression of heat-shock proteins in indomethacin-treated cells (Western blotting); assay type: cell-based, rat; details: RGM-1 cells, 5, 10 and 25 uM for 16 hours, then indomethacin 0.5 uM 16 hours, FIG. 7
Experimental: To measure expression of heat-shock proteins, HO-1, HSP27, HSP70, cells were pretreated with concentrations of 5, 10, and 25 μM revaprazan, and then treated with indomethacin (a NSAID, 0.5 μM).
The rat gastric mucosal (RGM-1, RIKEN cell bank, Japan) cells were seeded in culture dishes at 2×10^6 cells/100 mm^2 and cultured in DMEM-F12 (Gibco BRL, Grand Island, N.Y., U.S.A.), supplemented with 100 units/mL penicillin, 100 ug/mL streptomycin, and 10% FBS (Fetal Bovine Serum). RGM-1 cells were pretreated with revaprazan (5, 10, and 25 uM) and cultured 37° C. for 16 hours. The culture media were removed and the cells were washed three times with PBS (137 mM NaCl, 2.7 mM KCl, 10 mM Na2HPO4, and 2 mM KH2PO4). A solution of indomethacin in sterilized water was added to the cells to reach a final concentration of 0.5 uM, and the cells were incubated at 37° C. for 16 hours. After incubation, the cells were resuspended in a lysis buffer (20 mM Tris-Cl (pH 7.5), 150 mM NaCl, 1% Triton X-100, 1 mM EDTA, and protease inhibitor cocktail (Roche, Mannheim, Germany)). The suspension was sonicated for approximately 10 seconds, four times using the BIORUPTOR (Cosmo Bio, Koto-ku, Tokyo), and centrifuged at 4° C., 12000 rpm for 30 minutes. […]

[2] = system: indomethacin-induced gastric mucosal lesions; assay: Preventive effect on in vivo indomethacin-induced gastric injury; set-up: species or system Sprague-Dawley male rats; details: rats, 10 mg/kg via oro-gastric tube prior to indomethacin 40 mg/kg for 12 hrs, FIG. 3A
Source text: Six-week old specific-pathogen-free (SPF) Sprague-Dawley male rats (Charles River, Tokyo, Japan) were used for experiments. The rats were fed a sterilized commercial pellet diet (Biogenomics Co., Seoul, Korea), given sterile water ad libitum, and housed in air-conditioned biohazard room with a 12-h light:12-h dark cycle. The rats were divided into four groups; indomethacin-only treatment group, revaprazan-indomethacin treatment group, ethanol-only treatment group and revaprazan-ethanol treatment group. The rats were food-deprived 24 hours, and then administered with 10 mg/kg revaprazan suspended in 0.5% CMC (carboxymethylcellulose) via oro-gastric tube prior to exposure to either indomethacin (40 mg/kg for 12 hrs) or absolute ethanol (6 ml/kg for 1 hr). The stomachs of the rats belonging to the groups treated with indomethacin were excised and the degree of gastric mucosal lesions was observed (see FIG. 3A). Referring to FIG. 3A, in the indomethacin-only treatment group, increased hemorrhagic lesions in gastric mucosa were observed visually. […] Also, the stomachs of the rats belonging to the ethanol treatment groups were excised and the degree of gastric mucosal lesions was observed (see FIG. 3B).

[3] = system: interleukin-8 (IL-8); assay: Expression level of IL-8 in sulindac-treated cells (RT-PCR); assay type: cell-based, rat; details: RGM-1 cells, revaprazan 25 uM (rebamipide 50 uM) 16 hours, then sulindac 100 uM 8 hours, FIG. 6
Experimental: In order to evaluate cytoprotective effect of revaprazan, 100 μM of sulindac belonging to NSAIDs was added to the rat cells, and the expression levels of pro-angiogenic growth factors, VEGF (Vascular Endothelial Growth Factor), interleukin-8 (IL-8), and COX-2 (cyclooxygenase-2) were measured. Rebamipide (50 μM), known to have cytoprotective properties, was used as a control drug and revaprazan (25 μM) was used as a test drug. The rat gastric mucosal (RGM-1, RIKEN cell bank, Japan) cells were seeded in culture dishes at 2×10^6 cells/100 mm^2 and cultured in RPMI 1640 (Gibco BRL, Grand Island, N.Y., U.S.A.), supplemented with 100 units/mL penicillin, 100 ug/mL streptomycin, and 10% FBS (Fetal Bovine Serum). […] The culture media were removed and the cells were washed three times with PBS (137 mM NaCl, 2.7 mM KCl, 10 mM Na2HPO4, and 2 mM KH2PO4). A solution of sulindac in DMSO was added to the cells to reach a final concentration of 100 uM and the cells were cultured at 37° C. for 8 hours. The cultured cells were collected by centrifugation at 23° C. at 3000 rpm for 3 minutes, and the total RNA was isolated from the cells using the TRIzol reagent (Life technologies, Milan, Italy). Sterilized RNase-free water was added to 2 μg of the total RNA and 1 μl of 10 pmol/λ oligo dT to obtain reaction solutions with a volume of 34 μl. […]

Structure (SMILES): Cc1nc(Nc2ccc(F)cc2)nc(N2CCc3ccccc3C2C)c1C (stereo not drawn) [revaprazan, 5,6-dimethyl-2-(4-fluorophenylamino)-4-(1-methyl-1,2,3,4-tetrahydroisoquinolin-2-yl)pyrimidine]
- expression of heat-shock proteins [1]: stimulating expression
- indomethacin-induced gastric injury [2]: completely inhibited
- expression level of IL-8 versus rebamipide-sulindac treatment group [3]: much higher
